{
  "source": "patent EP2646421B1",
  "about": "“7-NITRO-5-PHENYL-1-(PYRROLIDIN-1-YLMETHYL)-1H-BENZO[E][1,4]DIAZEPIN-2(3H)-ONE AND OTHER BENZODIAZEPINE DERIVATIVES” (Pignataro, Giuseppe, priority 2010, dated 2012)",
  "type_in_all_cases": "cell-based",
  "key": {"NCX2": {"biological_target": "T1, NCX2 (Rattus norvegicus, UniProt P48768)", "T1 construct": "expressed in transfected cells", "T1 sequence (P48768 21-921)": "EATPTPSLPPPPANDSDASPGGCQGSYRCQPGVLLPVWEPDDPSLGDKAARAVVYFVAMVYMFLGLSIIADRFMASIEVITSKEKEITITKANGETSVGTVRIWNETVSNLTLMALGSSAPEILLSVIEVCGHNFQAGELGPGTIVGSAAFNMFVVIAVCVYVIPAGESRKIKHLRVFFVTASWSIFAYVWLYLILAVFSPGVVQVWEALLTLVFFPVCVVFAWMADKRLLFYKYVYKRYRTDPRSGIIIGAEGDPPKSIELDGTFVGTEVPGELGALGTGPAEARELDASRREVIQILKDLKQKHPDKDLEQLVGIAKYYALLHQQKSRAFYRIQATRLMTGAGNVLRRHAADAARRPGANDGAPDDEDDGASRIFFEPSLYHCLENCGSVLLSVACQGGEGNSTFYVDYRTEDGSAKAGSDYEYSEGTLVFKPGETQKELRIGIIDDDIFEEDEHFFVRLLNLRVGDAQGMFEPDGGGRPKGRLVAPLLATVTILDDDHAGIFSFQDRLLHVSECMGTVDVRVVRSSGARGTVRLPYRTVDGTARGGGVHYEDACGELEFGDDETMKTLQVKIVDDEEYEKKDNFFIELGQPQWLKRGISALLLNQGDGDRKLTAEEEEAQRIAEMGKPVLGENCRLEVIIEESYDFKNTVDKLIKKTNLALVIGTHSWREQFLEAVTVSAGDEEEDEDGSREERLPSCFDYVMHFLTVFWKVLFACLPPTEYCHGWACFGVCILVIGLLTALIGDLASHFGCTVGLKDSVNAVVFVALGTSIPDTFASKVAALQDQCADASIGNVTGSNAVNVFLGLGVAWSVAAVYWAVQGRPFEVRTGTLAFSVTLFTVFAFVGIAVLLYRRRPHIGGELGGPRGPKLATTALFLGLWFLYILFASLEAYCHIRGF", "assay": "Fura-2 AM single-cell microfluorimetry, BHK-NCX2 cells", "conditions": "10 nM (Fig. 2)", "procedure": "(§1) The activity of NCX was established by means of three different subclones of baby hamsted kidney (BHK) cells that were stably transfected with one of each NCX isoforms, named BHK-NCX1, BHK-NCX2 and BHK-NCX3. These cell lines were grown on plastic dishes in a mix of DMEM and Ham's F12 media (1:1) (Gibco, Invitrogen, MI, Italy) supplemented with 5% fetal bovine serum, 100 U/ml penicillin, and 100 µg/ml streptomycin (Sigma, St. Louis, Missouri, USA). Cells were cultured in a humidified 5% CO2 atmosphere and at the temperature of 37°C.\n(§2) NCX activity has been measured considering the variation of intracellular concentrations of Ca^2+ ions ([Ca^2+]i) due to its activation by means of single-cell microfluorimetry. […] In both cases, this probe will produce an emission at 510 nm; the ratio between the two emission relative to 340 and 380 excitation allow to quantify [Ca^2+]i in the time considering the calibration curve previously performed. […]\n(§3) Briefly, BHK cells wild type and/or BHK trasnsfected with NCX mutants, grown on glass coverslips, were loaded with Fura-2 acetoxymethyl ester (Fura-2AM) (10 µM) for 30 minutes at 37°C in normal Krebs solution containing the following (in mM): 5.5 KCI, 160 NaCl, 1.2 MgCl2, 1.5 CaCl2, 10 glucose, and 10 Hepes-NaOH, pH 7.4. […] Fura-2 fluorescence intensity was measured every 3 seconds. […]"}, "NCX3": {"biological_target": "T2, NCX3 (Rattus norvegicus, UniProt P70549)", "T2 construct": "expressed in transfected cells", "T2 sequence (P70549 31-927)": "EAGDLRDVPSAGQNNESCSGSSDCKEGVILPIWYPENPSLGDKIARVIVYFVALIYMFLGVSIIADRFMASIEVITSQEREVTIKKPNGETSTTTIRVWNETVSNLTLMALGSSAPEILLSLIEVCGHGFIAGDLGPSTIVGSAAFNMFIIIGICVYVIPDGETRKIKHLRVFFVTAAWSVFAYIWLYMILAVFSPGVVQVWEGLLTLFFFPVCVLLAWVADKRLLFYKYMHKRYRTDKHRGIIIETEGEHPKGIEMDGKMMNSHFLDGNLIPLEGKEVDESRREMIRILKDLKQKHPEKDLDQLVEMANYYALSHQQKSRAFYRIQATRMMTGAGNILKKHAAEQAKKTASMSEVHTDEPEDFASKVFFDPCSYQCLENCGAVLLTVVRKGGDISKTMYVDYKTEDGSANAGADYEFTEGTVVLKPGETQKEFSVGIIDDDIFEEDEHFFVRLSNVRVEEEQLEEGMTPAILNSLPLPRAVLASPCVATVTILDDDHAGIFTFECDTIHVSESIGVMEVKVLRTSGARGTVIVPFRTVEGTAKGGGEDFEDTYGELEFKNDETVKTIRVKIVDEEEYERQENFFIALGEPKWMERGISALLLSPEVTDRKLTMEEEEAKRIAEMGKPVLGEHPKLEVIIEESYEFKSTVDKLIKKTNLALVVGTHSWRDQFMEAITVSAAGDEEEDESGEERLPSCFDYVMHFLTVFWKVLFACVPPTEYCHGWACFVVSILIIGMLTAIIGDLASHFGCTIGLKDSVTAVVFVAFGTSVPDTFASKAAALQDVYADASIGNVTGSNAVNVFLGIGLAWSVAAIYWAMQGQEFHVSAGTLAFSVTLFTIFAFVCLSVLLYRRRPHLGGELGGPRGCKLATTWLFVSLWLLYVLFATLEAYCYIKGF", "assay": "Fura-2 AM single-cell microfluorimetry, BHK-NCX3 cells", "conditions": "10 nM (Fig. 2)", "procedure": "as §1, §2, §3"}, "NCX1Δf": {"biological_target": "T3, NCX1Δf (Canis lupus familiaris, UniProt P23685, DEL273-712)", "T3 construct": "expressed in transfected cells", "T3 sequence (P23685 with tags, fused parts or gaps DEL273-712)": "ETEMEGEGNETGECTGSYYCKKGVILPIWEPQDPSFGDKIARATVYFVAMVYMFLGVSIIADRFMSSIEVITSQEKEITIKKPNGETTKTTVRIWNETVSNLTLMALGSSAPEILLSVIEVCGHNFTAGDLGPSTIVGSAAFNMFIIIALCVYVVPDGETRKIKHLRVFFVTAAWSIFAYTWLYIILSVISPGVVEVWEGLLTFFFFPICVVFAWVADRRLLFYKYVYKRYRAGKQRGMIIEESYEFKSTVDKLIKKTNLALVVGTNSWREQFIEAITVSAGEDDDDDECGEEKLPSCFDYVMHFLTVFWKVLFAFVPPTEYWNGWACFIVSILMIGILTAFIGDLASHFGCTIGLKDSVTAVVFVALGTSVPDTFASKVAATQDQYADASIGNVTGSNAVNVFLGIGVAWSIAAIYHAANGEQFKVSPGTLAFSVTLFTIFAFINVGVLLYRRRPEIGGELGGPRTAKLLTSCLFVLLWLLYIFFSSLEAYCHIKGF", "assay": "Na+-dependent Ca2+ influx assay on BHK cells with f-loop deletion mutant", "conditions": "10 nM; compared to wild-type NCX3 exposed to the same treatment", "procedure": "In order to establish the molecular determinants of the effect of neurounina-1 on NCX1, we firstly performed a Na^+-dependent Ca^2+ influx assay on BHK cells stably transfected with a mutated NCX1 exchanger (NCX1Δf), in which a large portion of the f loop, region 241-680, was removed by deletion mutagenesis.\nAll experiments aimed to identify the binding site of neurounina-1 were performed on BHK cells stably transfected with a single NCX chimera or mutant.\nThe activity of the Na^+/Ca^2+ exchanger was measured by means of ^45Ca^2+ radiotracer variations in the cytoplasm of cells exposed to a protocol stimulating the forward or the reverse mode of the antiporter. The BHK cells expressing each mutated or non-mutated NCX isoform were cultured in 12-well dishes and incubated in 145 mM NaCl for 10 minutes and then in a medium containing only 145 mM N-Methyl D-glucamine (NMDG) and 10 µM of ^45Ca^2+. This rapid substitution of the medium from a high level of Na^+ to another one without Na^+ allow the ^45Ca^2+ influx (reverse mode). Before the medium substitution cells was incubated with 1 mM ouabain, a Na^+/K^+ pump inhibitor, and 10 µM monensin, a ionophore for extracellular Na^+. […] The medium was removed and cells were subsequently lysed with 0.1 N NaOH and aliquots were taken to determine radioactivity and protein content."}},
  "data": [
    {"molecule": "O=C1CN=C(c2ccccc2)c2cc([N+](=O)[O-])ccc2N1CN1CCCC1", "note": "[neurounina-1, 7-nitro-5-phenyl-1-(pyrrolidin-1-ylmethyl)-1H-benzo[e][1,4]diazepin-2(3H)-one]", "values": [
      {"measurement": "increased reverse mode activity of NCX2", "setting": "NCX2", "result": 40, "unit": "%"},
      {"measurement": "activity of Na+/Ca2+ exchange in BHK cells expressing NCX3", "setting": "NCX3", "result": "did not show any significant difference"},
      {"measurement": "activity of the mutant NCX1Δf", "setting": "NCX1Δf", "result": "significantly increased"}
    ]}
  ]
}
